Measurements taken from ChEMBL document CHEMBL1201862, “PubChem BioAssay data set” (2004).
Each block holds one compound with its values, some of them ahead of it. Active and inactive are the calls of the source.

Key:
[1] = molecular target: T1, Heat shock factor protein 1 (Mus musculus, UniProt P38532); assay: decrease of HSF1-responsive luciferase luminescence – cell-based, NIH3T3, dose retest, confirmation (AID 2382); type: functional;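 note: NIH3T3 fibroblasts with HSF1-driven luciferase reporter stressed by proteasome inhibitor MG132; luminescence from HSF1-driven luciferase expression after 8 hours of MG132 stress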
T1 sequence (P38532 whole entry): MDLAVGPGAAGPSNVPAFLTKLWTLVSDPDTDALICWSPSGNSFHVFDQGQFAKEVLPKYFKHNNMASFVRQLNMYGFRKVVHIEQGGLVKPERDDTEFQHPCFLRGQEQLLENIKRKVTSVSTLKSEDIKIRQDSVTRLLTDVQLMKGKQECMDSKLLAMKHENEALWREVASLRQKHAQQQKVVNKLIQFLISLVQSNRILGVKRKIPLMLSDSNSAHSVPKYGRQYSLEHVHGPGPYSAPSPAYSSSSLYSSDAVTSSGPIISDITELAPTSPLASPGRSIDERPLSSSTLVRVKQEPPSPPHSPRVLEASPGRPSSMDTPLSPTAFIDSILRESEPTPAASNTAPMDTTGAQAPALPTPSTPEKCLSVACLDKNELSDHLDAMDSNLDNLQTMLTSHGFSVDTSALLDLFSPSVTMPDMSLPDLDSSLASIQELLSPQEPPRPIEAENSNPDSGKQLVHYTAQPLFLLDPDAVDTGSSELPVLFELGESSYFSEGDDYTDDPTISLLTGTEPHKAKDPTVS

[2] = molecular target: T2, Short transient receptor potential channel 4 (Mus musculus, UniProt Q9QUQ5); assay: potentiation of DAMGO-evoked TRPC4 calcium signal – cell-based, HEK293 TRPC4/mu-opioid, Fluo-4 calcium, EC20 DAMGO, dose response (AID 434941); type: functional
T2 sequence (Q9QUQ5 whole entry): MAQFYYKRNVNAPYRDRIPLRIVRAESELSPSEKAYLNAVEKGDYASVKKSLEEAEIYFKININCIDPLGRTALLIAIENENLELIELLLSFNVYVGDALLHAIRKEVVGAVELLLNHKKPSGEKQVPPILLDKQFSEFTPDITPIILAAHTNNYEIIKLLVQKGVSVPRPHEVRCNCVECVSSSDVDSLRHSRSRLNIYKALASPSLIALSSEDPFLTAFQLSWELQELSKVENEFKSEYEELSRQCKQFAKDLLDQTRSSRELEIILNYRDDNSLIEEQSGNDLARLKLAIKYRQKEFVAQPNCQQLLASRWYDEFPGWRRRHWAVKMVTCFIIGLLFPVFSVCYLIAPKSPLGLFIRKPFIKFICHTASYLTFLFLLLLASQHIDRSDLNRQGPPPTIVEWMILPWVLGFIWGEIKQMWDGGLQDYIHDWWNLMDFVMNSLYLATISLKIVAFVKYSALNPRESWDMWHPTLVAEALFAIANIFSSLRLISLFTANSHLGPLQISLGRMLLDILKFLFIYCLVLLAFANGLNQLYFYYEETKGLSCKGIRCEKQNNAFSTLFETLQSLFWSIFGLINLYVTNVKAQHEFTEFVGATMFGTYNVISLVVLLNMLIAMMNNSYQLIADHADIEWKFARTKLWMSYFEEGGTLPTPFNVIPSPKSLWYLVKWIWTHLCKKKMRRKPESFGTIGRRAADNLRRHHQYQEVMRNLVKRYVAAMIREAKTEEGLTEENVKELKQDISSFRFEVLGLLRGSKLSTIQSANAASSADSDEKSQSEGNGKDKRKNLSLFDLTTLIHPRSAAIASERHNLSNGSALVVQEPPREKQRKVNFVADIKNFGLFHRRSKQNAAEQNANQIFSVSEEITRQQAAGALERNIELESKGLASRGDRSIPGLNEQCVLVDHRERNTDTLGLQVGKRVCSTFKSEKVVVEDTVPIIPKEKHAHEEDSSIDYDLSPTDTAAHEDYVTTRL

[3] = tested on: HEK293; assay: EBV LMP1 TES2 canonical NF-kB signalling blockers – cell-based, HEK293, luciferase, cherry-pick, dose response (AID 588343); type: functional; settings: Homo sapiens
[4] = molecular target: T3, RNA-binding protein pos-1 (Caenorhabditis elegans, UniProt G5EF15); assay: disruptors of C. elegans POS-1 RNA interaction – biochemical, fluorescence polarization, dose response (AID 1964);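 note: purified POS-1 fused to maltose binding protein made in E. coli; potency of compounds blocking POS-1 binding to fluorescent RNA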
T3 sequence (G5EF15 whole entry): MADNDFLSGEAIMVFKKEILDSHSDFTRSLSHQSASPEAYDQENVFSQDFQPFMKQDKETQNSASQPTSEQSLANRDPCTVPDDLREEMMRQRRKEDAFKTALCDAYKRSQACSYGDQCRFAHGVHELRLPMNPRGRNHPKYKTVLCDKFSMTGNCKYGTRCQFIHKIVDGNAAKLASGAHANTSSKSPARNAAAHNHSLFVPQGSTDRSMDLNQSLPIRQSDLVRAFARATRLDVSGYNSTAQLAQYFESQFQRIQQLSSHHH

[5] = molecular target: Luciferin 4-monooxygenase (Photinus pyralis, UniProt P08659); assay: Counter Screen for Luciferase-based Assay Positives. [Related pubchem assays: 620, 618, 411 ]
Sequence of Luciferin 4-monooxygenase (P08659 whole entry): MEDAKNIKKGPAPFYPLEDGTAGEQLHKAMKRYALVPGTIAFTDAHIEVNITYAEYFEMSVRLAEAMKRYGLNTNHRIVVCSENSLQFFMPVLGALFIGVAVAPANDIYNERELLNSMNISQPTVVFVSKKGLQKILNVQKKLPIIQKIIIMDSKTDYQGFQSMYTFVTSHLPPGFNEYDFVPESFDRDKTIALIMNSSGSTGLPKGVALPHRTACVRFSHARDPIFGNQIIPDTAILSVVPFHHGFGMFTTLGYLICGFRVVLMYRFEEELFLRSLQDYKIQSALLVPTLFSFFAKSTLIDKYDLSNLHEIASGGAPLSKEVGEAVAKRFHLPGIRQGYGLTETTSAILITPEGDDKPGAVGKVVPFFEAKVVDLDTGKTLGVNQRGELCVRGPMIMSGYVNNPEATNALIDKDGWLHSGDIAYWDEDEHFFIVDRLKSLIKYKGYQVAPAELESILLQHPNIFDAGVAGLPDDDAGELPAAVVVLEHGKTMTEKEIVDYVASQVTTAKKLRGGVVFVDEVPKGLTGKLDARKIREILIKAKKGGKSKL

[6] = molecular target: T4, Zinc finger protein mex-5 (Caenorhabditis elegans, UniProt Q9XUB2); assay: potency of MEX-5 RNA-binding blockers – biochemical, C. elegans, fluorescence polarization, dose response (AID 1960)
T4 sequence (Q9XUB2 whole entry): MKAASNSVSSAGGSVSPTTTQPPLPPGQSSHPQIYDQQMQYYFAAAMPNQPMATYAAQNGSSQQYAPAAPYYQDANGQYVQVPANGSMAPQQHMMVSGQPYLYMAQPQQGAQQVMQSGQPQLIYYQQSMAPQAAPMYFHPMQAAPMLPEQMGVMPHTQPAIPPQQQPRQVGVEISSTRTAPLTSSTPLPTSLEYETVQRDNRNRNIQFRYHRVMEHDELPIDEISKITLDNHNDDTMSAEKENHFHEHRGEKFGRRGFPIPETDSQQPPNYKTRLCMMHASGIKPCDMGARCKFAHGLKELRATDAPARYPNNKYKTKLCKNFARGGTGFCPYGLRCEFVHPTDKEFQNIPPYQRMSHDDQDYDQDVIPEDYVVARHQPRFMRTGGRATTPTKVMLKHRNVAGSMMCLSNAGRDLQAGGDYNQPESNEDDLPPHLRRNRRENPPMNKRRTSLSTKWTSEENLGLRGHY

[7] = tested on: HT-1080; assay: HT1080 cell viability loss – fluorescence readout (AID 620); type: functional, cell-based; settings: Homo sapiens
[8] = tested on: HeLa; assay: viability loss in HeLa cells – cell-based, 24 h, cherry-picked samples, cytotoxicity control, dose response (AID 504726); type: functional; settings: Homo sapiens;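 note: potency for cytotoxicity as loss of luminescence signal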
[9] = tested on: Salmon testes DNA; assay: acridine orange-DNA binding displacement – biochemical, fluorescence polarization, cherry-picked samples, set 2, artefact control for KSHV LANA DNA-binding inhibitor project, dose response (AID 504727); parameters: species or system Salmonidae
[10] = molecular target: ORF 73 (Human herpesvirus 8, UniProt O40947); assay: KSHV LANA DNA-binding disruption – biochemical, fluorescence polarization, cherry-picked samples, dose response (AID 504725); parameters: species or system Human gammaherpesvirus 8;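 note: fluorescence polarization of a labeled DNA duplex reporting LANA DNA binding; potency is for inhibitors that block LANA binding to the DNA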
Sequence of ORF 73 (O40947 whole entry): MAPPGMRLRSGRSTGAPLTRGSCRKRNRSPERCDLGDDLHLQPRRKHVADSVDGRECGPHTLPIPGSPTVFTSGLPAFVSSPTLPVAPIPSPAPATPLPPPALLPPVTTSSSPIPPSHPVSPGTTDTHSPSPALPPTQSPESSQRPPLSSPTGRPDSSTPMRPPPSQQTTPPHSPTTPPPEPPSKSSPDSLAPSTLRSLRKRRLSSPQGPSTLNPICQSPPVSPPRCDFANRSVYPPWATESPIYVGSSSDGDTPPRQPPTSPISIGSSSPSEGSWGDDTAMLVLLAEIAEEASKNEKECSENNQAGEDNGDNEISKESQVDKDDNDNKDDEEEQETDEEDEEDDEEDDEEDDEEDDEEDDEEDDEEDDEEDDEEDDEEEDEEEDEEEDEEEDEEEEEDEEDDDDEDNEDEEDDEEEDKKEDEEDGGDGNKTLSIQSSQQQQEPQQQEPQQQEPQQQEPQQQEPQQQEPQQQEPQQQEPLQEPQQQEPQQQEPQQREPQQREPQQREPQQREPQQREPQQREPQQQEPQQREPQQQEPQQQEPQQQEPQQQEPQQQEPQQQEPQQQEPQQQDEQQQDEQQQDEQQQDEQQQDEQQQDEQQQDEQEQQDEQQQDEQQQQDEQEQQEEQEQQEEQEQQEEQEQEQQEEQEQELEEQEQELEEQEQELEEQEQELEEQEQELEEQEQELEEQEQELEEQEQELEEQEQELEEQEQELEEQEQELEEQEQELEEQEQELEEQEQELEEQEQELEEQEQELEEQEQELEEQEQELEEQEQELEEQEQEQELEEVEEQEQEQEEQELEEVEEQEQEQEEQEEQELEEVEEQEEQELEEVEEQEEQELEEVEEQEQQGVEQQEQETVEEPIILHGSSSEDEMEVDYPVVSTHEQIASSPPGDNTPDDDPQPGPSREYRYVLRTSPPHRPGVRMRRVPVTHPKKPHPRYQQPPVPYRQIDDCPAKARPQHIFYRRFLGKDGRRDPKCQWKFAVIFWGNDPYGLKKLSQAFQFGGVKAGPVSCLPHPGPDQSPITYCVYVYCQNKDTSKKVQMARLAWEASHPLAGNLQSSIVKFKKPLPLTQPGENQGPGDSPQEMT

[11] = molecular target: T5, Microphthalmia-associated transcription factor (Homo sapiens, UniProt O75030); assay: reducers of TRPM1 reporter luminescence, concentration series – cell-based, SK-MEL-5, cherry-picked, set 3, MITF inhibitor project, dose response (AID 493073); type: functional;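 note: SK-MEL-5 melanoma cells with luciferase driven by the MITF target TRPM1 promoter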
T5 sequence (O75030 whole entry): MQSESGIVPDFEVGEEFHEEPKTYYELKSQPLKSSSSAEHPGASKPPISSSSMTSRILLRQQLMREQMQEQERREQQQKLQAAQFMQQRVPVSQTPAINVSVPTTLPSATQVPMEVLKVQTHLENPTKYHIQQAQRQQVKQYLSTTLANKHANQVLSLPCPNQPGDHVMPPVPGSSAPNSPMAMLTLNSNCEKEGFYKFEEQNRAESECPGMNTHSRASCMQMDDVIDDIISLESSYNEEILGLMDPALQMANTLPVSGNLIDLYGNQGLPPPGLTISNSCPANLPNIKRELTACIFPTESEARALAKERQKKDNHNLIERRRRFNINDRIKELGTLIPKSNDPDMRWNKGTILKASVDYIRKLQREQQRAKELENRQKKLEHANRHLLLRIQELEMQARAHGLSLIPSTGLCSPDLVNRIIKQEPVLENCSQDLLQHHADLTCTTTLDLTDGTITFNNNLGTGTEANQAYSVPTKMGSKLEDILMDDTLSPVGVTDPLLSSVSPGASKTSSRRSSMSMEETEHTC

[12] = viability loss in HepG2 liver cells – cell-based, ATP luminescence, cherry-pick, set 6, cytotoxicity control, dose response (AID 1053125); type: functional
[13] = IC50 of Artemis nuclease activity blockers – biochemical, fluorescence intensity, dose response (AID 720701); type: functional;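 note: Artemis endonuclease enzyme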
[14] = cells; settings: A549
[15] = cells; settings: HEK293
[16] = molecular target: Voltage-dependent T-type calcium channel subunit alpha-1H (Homo sapiens, UniProt O95180); assay: human CACNA1H calcium influx blockade – cell-based, synthetic library set 1, calcium flux (AID 493022); type: functional
Sequence of Voltage-dependent T-type calcium channel subunit alpha-1H (O95180 whole entry): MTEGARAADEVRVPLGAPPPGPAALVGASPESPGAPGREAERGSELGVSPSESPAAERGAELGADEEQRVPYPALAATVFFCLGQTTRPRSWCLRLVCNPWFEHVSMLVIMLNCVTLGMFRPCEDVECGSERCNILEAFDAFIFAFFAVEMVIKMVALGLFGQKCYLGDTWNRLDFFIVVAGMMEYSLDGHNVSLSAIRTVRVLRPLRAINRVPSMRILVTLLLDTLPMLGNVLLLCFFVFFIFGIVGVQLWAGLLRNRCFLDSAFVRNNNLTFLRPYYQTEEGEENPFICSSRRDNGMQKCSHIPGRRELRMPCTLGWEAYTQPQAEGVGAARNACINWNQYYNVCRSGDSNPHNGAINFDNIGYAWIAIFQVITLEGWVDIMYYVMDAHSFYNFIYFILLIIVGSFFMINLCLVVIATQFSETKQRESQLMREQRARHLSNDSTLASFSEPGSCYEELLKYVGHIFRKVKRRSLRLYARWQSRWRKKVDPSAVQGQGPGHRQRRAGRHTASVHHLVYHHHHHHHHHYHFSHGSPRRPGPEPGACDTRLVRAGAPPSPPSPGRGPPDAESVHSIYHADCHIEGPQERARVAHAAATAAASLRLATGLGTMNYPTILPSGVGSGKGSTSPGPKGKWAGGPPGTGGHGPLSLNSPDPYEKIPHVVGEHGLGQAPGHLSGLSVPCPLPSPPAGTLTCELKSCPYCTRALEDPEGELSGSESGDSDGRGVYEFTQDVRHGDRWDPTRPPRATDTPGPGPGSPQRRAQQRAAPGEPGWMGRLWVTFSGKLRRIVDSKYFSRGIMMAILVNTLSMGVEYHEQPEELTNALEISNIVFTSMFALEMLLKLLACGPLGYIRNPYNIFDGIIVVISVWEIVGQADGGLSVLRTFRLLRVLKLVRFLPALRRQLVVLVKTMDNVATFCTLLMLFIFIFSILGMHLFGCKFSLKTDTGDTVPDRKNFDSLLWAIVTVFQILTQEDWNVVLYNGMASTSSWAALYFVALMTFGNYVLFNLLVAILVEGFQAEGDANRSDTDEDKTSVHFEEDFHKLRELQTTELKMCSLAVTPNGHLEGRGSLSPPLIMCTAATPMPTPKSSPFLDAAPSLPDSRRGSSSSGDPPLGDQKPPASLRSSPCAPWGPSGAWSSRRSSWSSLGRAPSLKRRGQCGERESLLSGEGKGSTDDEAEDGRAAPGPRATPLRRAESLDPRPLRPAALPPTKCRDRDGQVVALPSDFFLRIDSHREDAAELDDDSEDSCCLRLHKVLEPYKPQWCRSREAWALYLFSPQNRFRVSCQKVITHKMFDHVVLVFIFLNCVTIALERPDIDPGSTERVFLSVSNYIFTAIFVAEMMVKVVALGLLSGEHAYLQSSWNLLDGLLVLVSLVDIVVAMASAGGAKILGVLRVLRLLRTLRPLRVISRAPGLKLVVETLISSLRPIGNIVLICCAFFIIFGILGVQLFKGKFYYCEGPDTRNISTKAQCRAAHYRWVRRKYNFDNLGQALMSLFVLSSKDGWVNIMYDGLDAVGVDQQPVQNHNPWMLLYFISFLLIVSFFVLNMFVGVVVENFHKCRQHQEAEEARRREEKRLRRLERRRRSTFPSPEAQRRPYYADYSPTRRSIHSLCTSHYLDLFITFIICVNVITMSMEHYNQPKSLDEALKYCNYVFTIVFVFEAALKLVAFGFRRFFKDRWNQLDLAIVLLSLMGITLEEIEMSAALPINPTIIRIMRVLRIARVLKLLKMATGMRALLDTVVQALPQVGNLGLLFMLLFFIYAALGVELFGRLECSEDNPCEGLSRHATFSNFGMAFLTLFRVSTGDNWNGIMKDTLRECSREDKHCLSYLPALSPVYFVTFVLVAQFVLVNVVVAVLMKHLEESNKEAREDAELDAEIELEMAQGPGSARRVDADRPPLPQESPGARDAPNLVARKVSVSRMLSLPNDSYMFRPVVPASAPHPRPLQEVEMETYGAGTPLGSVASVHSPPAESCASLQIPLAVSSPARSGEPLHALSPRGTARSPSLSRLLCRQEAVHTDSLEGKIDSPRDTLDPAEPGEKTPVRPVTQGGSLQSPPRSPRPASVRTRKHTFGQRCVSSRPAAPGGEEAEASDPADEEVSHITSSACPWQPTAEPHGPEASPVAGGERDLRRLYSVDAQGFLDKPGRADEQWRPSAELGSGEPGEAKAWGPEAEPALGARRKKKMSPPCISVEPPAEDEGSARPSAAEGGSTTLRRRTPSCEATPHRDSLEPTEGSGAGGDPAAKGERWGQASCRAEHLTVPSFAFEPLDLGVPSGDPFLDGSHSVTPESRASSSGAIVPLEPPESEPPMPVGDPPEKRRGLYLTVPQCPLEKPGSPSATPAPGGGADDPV

[17] = molecular target: T6, Caspase-3 (Homo sapiens, UniProt P42574); assay: activation of caspase-3 zymogen – biochemical, absorbance, dose response (AID 489014)
T6 sequence (P42574 whole entry): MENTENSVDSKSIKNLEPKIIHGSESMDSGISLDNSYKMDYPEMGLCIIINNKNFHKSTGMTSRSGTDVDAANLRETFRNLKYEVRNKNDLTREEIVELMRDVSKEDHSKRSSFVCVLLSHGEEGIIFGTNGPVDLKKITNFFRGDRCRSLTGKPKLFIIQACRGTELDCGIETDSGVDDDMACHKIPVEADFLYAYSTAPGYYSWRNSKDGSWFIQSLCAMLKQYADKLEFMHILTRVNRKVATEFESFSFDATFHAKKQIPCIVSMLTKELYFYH

[18] = molecular target: Caspase-7 (Homo sapiens, UniProt P55210); assay: activation of caspase-7 zymogen – biochemical, absorbance, counter-screen for procaspase-3 activator project, dose response (AID 489013)
Sequence of Caspase-7 (P55210 24-198 limits assumed): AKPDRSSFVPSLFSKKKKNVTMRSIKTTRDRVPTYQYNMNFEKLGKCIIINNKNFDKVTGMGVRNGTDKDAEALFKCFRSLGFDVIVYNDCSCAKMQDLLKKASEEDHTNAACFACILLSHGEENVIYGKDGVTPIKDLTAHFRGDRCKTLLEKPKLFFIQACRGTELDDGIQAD
Sequence of Caspase-7 (P55210 207-303 limits assumed): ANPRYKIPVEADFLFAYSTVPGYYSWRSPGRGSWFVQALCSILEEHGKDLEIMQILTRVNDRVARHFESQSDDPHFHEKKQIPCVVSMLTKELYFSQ

[19] = molecular target: G-protein coupled receptor 35 (Homo sapiens, UniProt Q9HC97); assay: SAR analysis of Antagonists of the GPR35 Receptor using an Image-Based Assay - Set 5. [Related pubchem assays (depositor defined):AID2058, AID2079]; type: functional
Sequence of G-protein coupled receptor 35 (Q9HC97 whole entry): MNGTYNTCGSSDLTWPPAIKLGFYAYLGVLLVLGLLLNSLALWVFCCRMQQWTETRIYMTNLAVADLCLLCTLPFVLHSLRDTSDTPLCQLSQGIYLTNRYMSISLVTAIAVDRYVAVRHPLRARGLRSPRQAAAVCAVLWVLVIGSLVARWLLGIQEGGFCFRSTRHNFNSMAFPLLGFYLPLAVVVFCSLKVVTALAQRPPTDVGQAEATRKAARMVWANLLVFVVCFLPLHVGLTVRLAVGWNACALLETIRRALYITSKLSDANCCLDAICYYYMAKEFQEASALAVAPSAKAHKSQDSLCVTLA

[20] = molecular target: G-protein coupled receptor 55 (Homo sapiens, UniProt Q9Y2T6); assay: SAR Analysis of Selective Antagonists of GPR55 using an Image-Based Assay - Set 3. [Related pubchem assays (depositor defined):AID2058, AID2079]; type: functional
Sequence of G-protein coupled receptor 55 (Q9Y2T6 whole entry): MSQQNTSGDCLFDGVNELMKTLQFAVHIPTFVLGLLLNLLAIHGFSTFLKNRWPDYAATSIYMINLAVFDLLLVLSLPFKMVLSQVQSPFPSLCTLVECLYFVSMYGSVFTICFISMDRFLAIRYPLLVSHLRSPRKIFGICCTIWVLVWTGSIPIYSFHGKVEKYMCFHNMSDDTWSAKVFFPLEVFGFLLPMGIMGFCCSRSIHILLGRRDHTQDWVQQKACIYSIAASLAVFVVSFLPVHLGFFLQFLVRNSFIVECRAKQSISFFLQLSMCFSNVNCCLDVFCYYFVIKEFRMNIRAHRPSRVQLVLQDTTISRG

[21] = molecular target: DNA dC->dU-editing enzyme APOBEC-3A (Homo sapiens, UniProt P31941); assay: A3A deaminase inhibition for selectivity – biochemical, dose response (AID 504722); type: functional
[22] = molecular target: DNA dC->dU-editing enzyme APOBEC-3G (Homo sapiens, UniProt Q9HC16); assay: Dose Response confirmation of small molecule APOBEC3G DNA Deaminase Inhibitors via a fluorescence-based single-stranded DNA deaminase assay. [Related pubchem assays (depositor defined):AID493012, AID493028]; type: functional
[23] = molecular target: T7, Rac GTPase-activating protein 1 (Homo sapiens, UniProt Q9H0H5); assay: blockers of MgcRacGAP-driven Rac1 GTP hydrolysis – biochemical, ADP Hunter fluorescence, primary and confirmatory, confirmation (AID 624330); type: functional
T7 sequence (Q9H0H5 whole entry): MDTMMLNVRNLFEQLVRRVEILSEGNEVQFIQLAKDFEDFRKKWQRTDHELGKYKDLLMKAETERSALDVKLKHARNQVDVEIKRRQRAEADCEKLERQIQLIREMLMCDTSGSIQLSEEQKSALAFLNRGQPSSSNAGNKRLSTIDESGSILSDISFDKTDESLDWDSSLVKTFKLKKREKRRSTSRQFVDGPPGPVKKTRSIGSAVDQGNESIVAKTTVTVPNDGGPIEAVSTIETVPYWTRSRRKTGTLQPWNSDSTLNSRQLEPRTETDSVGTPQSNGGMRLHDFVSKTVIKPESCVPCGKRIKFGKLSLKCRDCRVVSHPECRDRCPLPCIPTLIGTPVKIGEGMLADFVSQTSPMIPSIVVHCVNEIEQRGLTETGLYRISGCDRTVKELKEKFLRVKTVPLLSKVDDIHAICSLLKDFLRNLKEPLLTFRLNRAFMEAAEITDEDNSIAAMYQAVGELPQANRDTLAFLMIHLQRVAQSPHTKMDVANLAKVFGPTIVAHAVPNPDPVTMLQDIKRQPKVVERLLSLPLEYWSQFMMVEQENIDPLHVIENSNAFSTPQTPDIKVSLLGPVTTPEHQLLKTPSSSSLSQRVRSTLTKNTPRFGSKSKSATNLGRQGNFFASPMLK

EC50 [16]: 10 µM (active)
Compound: O=C(COc1ccc(Cl)cc1)Nc1nnc(-c2ccc3ccccc3c2)o1

EC50 [17]: > 85.2 µM (inactive)
EC50 [18]: > 85.2 µM (inactive)
Compound: CC(=O)NCCc1nc2ccccc2n1Cc1ccc(C)cc1

Continued, compound first:

Compound: N#CC1=C(N)C(C#N)(C#N)C(c2cccnc2)C2CC(c3ccccc3)CC=C12 (stereo not drawn)
EC50 [1]: > 195 µM (not active)
EC50 [2]: 4.73 µM (active)
AC50 [3]: 10.5 µM (active)

Compound: c1ccc(-c2cn3nc4c(nc3n2)CCCC4)cc1
EC50 [4]: 14.3 µM (active)
EC50 [5]: 0.29 µM (active)
EC50 [6]: 10.6 µM (active)
EC50 [7]: > 50 µM (not active)
AC50 [8]: 31.1 µM (active)
AC50 [9]: 169 µM (active)
AC50 [10]: 94.3 µM (active)
AC50 [11]: 5.89 µM (active)
AC50 [12]: > 52 µM (inactive)
IC50 [13]: > 20 µM (inactive)
AC50 [14]: 15.8 µM (active)
AC50 [15]: 12.7 µM (active)

Compound: COC(=O)c1cnn(-c2ccccc2)c1/C=N/NC(=S)NC(C)(C)C
IC50 [19]: 0.307 µM (active)
IC50 [20]: 6.58 µM (active)

Compound: O=[N+]([O-])c1cccc(/C=N/n2c(S)nnc2-c2cccnc2)c1
IC50 [21]: > 100 µM (inactive)
IC50 [22]: 2.33 µM (active)
IC50 [23]: 31.9 µM (active)
